Measured values as given in ChEMBL document CHEMBL5500424, “New Strategies for Responding to SARS-CoV-2: The Present and Future of Dual-Target Drugs” (J Med Chem, 2024).
pEC50, pIC50: −log10 of the molar value.

How the values were obtained:
SARS-CoV-2 [1] = test: microbe, parasite or virus in culture; conditions: Severe acute respiratory syndrome coronavirus 2, Vero, 24 h
[2] = Inhibition of SARS-CoV-2 nsp16 (1 to 298 residues) expressed in Escherichia coli BL21(DE3)RIL cells using RNA and [3H]SAM as substrate incubated for 1 hrs by SPA-based assay; set-up: species or system Severe acute respiratory syndrome coronavirus 2
[3] = Inhibition of N-terminal 6His-tagged SARS-CoV nsp14 N7-methyltransferase activity expressed in Escherichia coli using GpppAC4 synthetic RNA and [3H]-SAM as substrate incubated for 30 mins in presence of SAM by Liquid scintillation analysis; set-up: species or system Severe acute respiratory syndrome-related coronavirus
SARS-CoV-2 [4] = test: Antiviral activity against SARS CoV-2 USA-WA1/2020 infected in African green monkey Vero E6 cells assessed as reduction in viral plaque formation incubated for 3 days by plaque reduction neutralization assay; type: functional, organism-based; conditions: Severe acute respiratory syndrome coronavirus 2, USA-WA1/2020, Vero C1008, 72 h
[5] = target: T1, Replicase polyprotein 1ab (Severe acute respiratory syndrome coronavirus 2, UniProt P0DTD1); test: Inhibition of SARS-CoV-2 main protease by FRET assay
[6] = target: T1, Replicase polyprotein 1ab; test: Inhibition of C-terminal His-tagged SARS-CoV-2 PLpro BetaCoV/Wuhan/WIV04/2019 expressed in Escherichia coli BL21(DE3) using ISG-AMC substrate incubated for 3 hrs by FRET analysis
[7] = target: T1, Replicase polyprotein 1ab; test: Inhibition of recombinant SARS-CoV-2 Main protease by FRET analysis
SARS-CoV-2 [8] = test: Antiviral activity against SARS-CoV-2 infected in African green monkey Vero E6 cells assessed as inhibition of virus growth; type: functional, organism-based; conditions: Severe acute respiratory syndrome coronavirus 2, Vero C1008
[9] = target: T1, Replicase polyprotein 1ab; test: Inhibition of recombinant SARS-CoV-2 PLpro expressed in Escherichia coli BL21 (DE3) using Arg-Leu-Arg-Gly-Gly-AMC as substrate preincubated for 5 mins followed by substrate addition measured after 6 mins by fluorescence based assay
Furin = Furin (Homo sapiens, UniProt P09958); test: Inhibition of furin (unknown origin)
Sequence of Furin (P09958 whole entry): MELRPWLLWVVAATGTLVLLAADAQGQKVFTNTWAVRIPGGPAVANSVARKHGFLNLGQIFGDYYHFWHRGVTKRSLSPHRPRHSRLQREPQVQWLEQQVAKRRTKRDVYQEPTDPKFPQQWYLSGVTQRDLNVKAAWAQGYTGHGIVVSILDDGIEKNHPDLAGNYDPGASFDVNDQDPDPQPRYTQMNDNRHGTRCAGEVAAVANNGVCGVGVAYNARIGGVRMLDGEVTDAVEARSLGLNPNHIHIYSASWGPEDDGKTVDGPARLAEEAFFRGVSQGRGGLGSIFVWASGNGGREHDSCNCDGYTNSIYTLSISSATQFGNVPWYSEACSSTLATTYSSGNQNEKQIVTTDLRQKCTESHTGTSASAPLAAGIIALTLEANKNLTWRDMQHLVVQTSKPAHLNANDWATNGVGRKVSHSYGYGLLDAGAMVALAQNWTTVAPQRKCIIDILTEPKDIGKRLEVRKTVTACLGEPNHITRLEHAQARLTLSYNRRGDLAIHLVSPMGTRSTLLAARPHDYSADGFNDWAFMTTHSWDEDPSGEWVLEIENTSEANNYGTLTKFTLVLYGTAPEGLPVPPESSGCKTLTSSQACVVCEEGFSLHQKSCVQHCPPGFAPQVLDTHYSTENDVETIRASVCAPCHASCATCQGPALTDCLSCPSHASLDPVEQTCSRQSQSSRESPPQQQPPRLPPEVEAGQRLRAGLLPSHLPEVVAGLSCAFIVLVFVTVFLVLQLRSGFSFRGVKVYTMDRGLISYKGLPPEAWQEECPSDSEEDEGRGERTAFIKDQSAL

Q: With `N=C(N)Nc1ccc(C(=O)Oc2ccc3cc(C(=N)N)ccc3c2)cc1` [NAFAMOSTAT] as the molecule, how does the pEC50 (SARS-CoV-2 [1]) read?
A: The pEC50 was 8.00.

Q: With `N#Cc1cn([C@@H]2O[C@H](CSCC[C@H](N)C(=O)O)[C@@H](O)[C@H]2O)c2ncnc(N)c12` as the molecule, how does the pIC50 [2] read?
A: The pIC50 was 5.92.

Q: What about the pIC50 [3] of the same molecule?
A: The pIC50 was 7.15.

Q: With `Nc1ncnc2c1ncn2[C@@H]1O[C@H](C[C@@H](CO)CC[C@H](N)C(=O)O)[C@@H](O)[C@H]1O` as the molecule, how does the pIC50 [2] read?
A: Its pIC50 is 5.47.

Q: And the pIC50 [3]?
A: Its pIC50 is 6.72.

Q: With `CCCCCCCCCCCCCCCc1cccc(O)c1C(=O)O` [ANACARDIC ACID] as the molecule, how does the pEC50 (SARS-CoV-2 [4]) read?
A: Its pEC50 is 5.05.

Q: With `CCOC(=O)/C=C/[C@H](C[C@@H]1CCNC1=O)NC(=O)[C@H](Cc1ccccc1)NC(=O)[C@@H](Cc1ccc(F)cc1)NC(=O)OC(C)(C)C` as the molecule, how does the pIC50 [5] read?
A: The pIC50 was 5.74.

Q: And the pIC50 [6]?
A: The pIC50 was 7.22.

Q: With `O=C(OC[C@H]1O[C@@H](OC(=O)c2cc(O)c(O)c(OC(=O)c3cc(O)c(O)c(O)c3)c2)[C@H](OC(=O)c2cc(O)c(O)c(OC(=O)c3cc(O)c(O)c(O)c3)c2)[C@@H](OC(=O)c2cc(O)c(O)c(OC(=O)c3cc(O)c(O)c(O)c3)c2)[C@@H]1OC(=O)c1cc(O)c(O)c(OC(=O)c2cc(O)c(O)c(O)c2)c1)c1cc(O)c(O)c(OC(=O)c2cc(O)c(O)c(O)c2)c1` [TANNIC ACID] as the molecule, how does the pIC50 [7] read?
A: Its pIC50 is 4.88.

Q: With `CC(C)[C@H](NC(=O)[C@H](CCCNC(=N)N)NC(=O)N[C@@H](Cc1ccccc1)C(=O)O)C(=O)N[C@H](C=O)CCCNC(=N)N` [ANTIPAIN] as the molecule, how does the pEC50 (SARS-CoV-2 [8]) read?
A: Its pEC50 is 6.19.

Q: And the pIC50 [9]?
A: The pIC50 was 8.52.

Q: With `N=C(N)c1ccc(/N=N/Nc2ccc(C(=N)N)cc2)cc1` [DIMINAZENE] as the molecule, how does the pIC50 (Furin) read?
A: The pIC50 was 6.24.

Q: With `CCCCCC/C=C\CCCCCCCc1cccc(O)c1C(=O)O` [GINGKOLIC ACID] as the molecule, how does the pEC50 (SARS-CoV-2 [4]) read?
A: The pEC50 was 5.08.

Q: With `CCOC(=O)/C=C/[C@H](C[C@@H]1CCNC1=O)NC(=O)[C@H](Cc1ccccc1)NC(=O)[C@H](N)Cc1ccccc1` as the molecule, how does the pIC50 [6] read?
A: The pIC50 was 7.22.
